In ChEMBL document CHEMBL5329153, “Is structural hybridization invoking new dimensions for antimalarial drug discovery research?” (RSC Med Chem, 2023):
Converted amounts (≈) assume the structure as drawn.

Legend:
Plasmodium falciparum [1] = assay: Antimalarial activity against Chloroquine resistant Plasmodium falciparum Dd2 assessed as parasitic growth inhibition measured after 3 days by ELISA assay; type: functional, organism-based; settings: Dd2, 72 h
Plasmodium falciparum [2] = assay: Antimalarial activity against Chloroquine sensitive Plasmodium falciparum 3D7 assessed as parasitic growth inhibition measured after 3 days by ELISA assay; type: functional, organism-based; settings: 3D7, 72 h
Plasmodium falciparum [3] = assay: Antimalarial activity against Chloroquine resistant Plasmodium falciparum assessed as parasitic growth inhibition by microscopic anlaysis; type: functional, organism-based
Plasmodium falciparum [4] = assay: Antimalarial activity against Chloroquine-pyrimethamine resistant Plasmodium falciparum W2 assessed as parasitic growth inhibition measured after 48 hrs; type: functional, organism-based; settings: W2, 48 h
Plasmodium falciparum [5] = assay: Antimalarial activity against Chloroquine-pyrimethamine sensitive Plasmodium falciparum D6 assessed as parasitic growth inhibition measured after 48 hrs; type: functional, organism-based; settings: D6, 48 h
Hemozoin = assay: Inhibition of beta-hematin formation
Plasmodium falciparum [6] = assay: Antimalarial activity against Chloroquine sensitive Plasmodium falciparum assessed as parasitic growth inhibition; type: functional, organism-based
Plasmodium falciparum [7] = assay: Antimalarial activity against Chloroquine sensitive Plasmodium falciparum RKL-2 assessed as parasitic growth inhibition measured after 36 to 40 hrs by Giemsa staining based assay; type: functional, organism-based
Plasmodium falciparum [8] = assay: Antimalarial activity against chloroquine sensitive Plasmodium falciparum 3D7 assessed as parasitic growth inhibition by SYBR Green I dye based assay; type: functional, organism-based
Plasmodium falciparum [9] = assay: Antimalarial activity against Plasmodium falciparum 3D7 assessed as parasitic growth inhibition measured after 72 hrs by SYBR Green dye based assay; type: functional, organism-based; settings: 3D7, 72 h
Plasmodium falciparum [10] = assay: Antimalarial activity against Plasmodium falciparum female gametocytes assessed as parasitic growth inhibition; type: functional, organism-based
Plasmodium falciparum [11] = assay: Antimalarial activity against Plasmodium falciparum male gametocytes assessed as parasitic growth inhibition; type: functional, organism-based

For `COc1cc(NC(C)CCCNC(=O)CCCC(=O)NO)c2ncccc2c1` (stereo not given), the IC50 (Plasmodium falciparum [1]) was 1900 nM and the IC50 (Plasmodium falciparum [2]) was 400 nM.
Work on `O=C(NNC(=S)Nc1ccccc1)c1cc(-c2c(F)cccc2F)nc2ccc(C(F)(F)F)cc12` yielded an IC50 (Plasmodium falciparum [3]) of 0.19 µg/mL.
In the case of `O=C(NNC(=S)Nc1c(F)cccc1F)c1cc(-c2ccccc2Br)nc2c(Cl)cc(C(F)(F)F)cc12`, the IC50 (Plasmodium falciparum [3]) is reported as 0.36 µg/mL.
For `O=C(NNC(=S)Nc1cc(Cl)cc(Cl)c1)c1cc(-c2ccc(F)cc2F)nc2cc(Cl)c(F)cc12`, the IC50 (Plasmodium falciparum [3]) was 0.17 µg/mL.
For `N=C(N=C(N)N)SCCNc1ccnc2cc(C(F)(F)F)ccc12`, the IC50 (Plasmodium falciparum [4]) was 2950 nM and the IC50 (Plasmodium falciparum [5]) was 1860 nM.
For `COc1cc2c(cc1OC)CC(Nc1ccnc3cc(Cl)ccc13)C2`, the IC50 (Hemozoin) was 390 nM.
`CC1=C(C(=O)Nc2ccc(Br)cn2)C(c2cn(-c3ccccc3)nc2-c2ccc(Cl)cc2)NC(=O)N1` (stereo not given) showed an IC50 (Plasmodium falciparum [6]) of 0.03 µg/mL (≈ 0.0532 µM).
Work on `N=C(N=C(N)N)SCCCCNc1ccnc2cc(C(F)(F)F)ccc12` yielded an IC50 (Plasmodium falciparum [4]) of 6060 nM and an IC50 (Plasmodium falciparum [5]) of 2800 nM.
Work on `CC.Fc1ccc(Nc2nc(NCCCNc3ccnc4cc(Cl)ccc34)nc(Nc3ccc(F)cc3)n2)cc1` yielded an IC50 (Plasmodium falciparum [7]) of 51.5 µg/mL.
Compound `CC1=C(C(=O)Nc2ccccn2)C(c2cn(-c3ccccc3)nc2-c2ccc(F)cc2)NC(=O)N1` (stereo not given) has an IC50 (Plasmodium falciparum [6]) of 0.03 µg/mL (≈ 0.064 µM).
For `N=C(N=C(N)N)SCCCNc1ccnc2cc(Cl)ccc12`, the IC50 (Plasmodium falciparum [4]) was 2310 nM and the IC50 (Plasmodium falciparum [5]) was 1560 nM.
Compound `COc1cc(NC(C)CCCNC(=O)c2ccc(C(=O)NO)cc2)c2ncccc2c1` (stereo not given) has an IC50 (Plasmodium falciparum [1]) of 1200 nM and an IC50 (Plasmodium falciparum [2]) of 600 nM.
`N=C(N=C(N)N)SCCCNc1ccnc2cc(C(F)(F)F)ccc12` showed an IC50 (Plasmodium falciparum [4]) of 3210 nM and an IC50 (Plasmodium falciparum [5]) of 2850 nM.
`CCCN1C(=O)c2ccc3c4c(ccc(c24)C1=O)C(=O)C(CNc1c2ccc(Cl)cc2nc2ccc(OC)cc12)C3=O` showed an IC50 (Plasmodium falciparum [8]) of 3.65 nM.
`CC1=C(C(=O)Nc2ccc(Br)cn2)C(c2cn(-c3ccccc3)nc2-c2ccc([N+](=O)[O-])cc2)NC(=O)N1` (stereo not given) was tested, and the IC50 (Plasmodium falciparum [6]) was 0.06 µg/mL (≈ 0.104 µM).
`Fc1ccc(Nc2nc(NCCCNc3ccnc4cc(Cl)ccc34)nc(Nc3ccc(F)c(Cl)c3)n2)cc1Cl` was tested, and the IC50 (Plasmodium falciparum [7]) was 56 µg/mL (≈ 93 µM).
`CCCCNc1c2ccc(Cl)cc2nc2ccc(OC)cc12` showed an IC50 (Plasmodium falciparum [8]) of 26.4 nM.
`COc1ccc2nc3cc(Cl)ccc3c(NCC3C(=O)c4ccc5c6c(ccc(c46)C3=O)C(=O)N(CCn3ccnc3)C5=O)c2c1` gave an IC50 (Plasmodium falciparum [8]) of 8.44 nM.
`CC1=C(C(=O)Nc2ccc(Br)cn2)C(c2cn(-c3ccccc3)nc2-c2ccc(F)cc2)NC(=O)N1` (stereo not given) showed an IC50 (Plasmodium falciparum [6]) of 0.07 µg/mL (≈ 0.128 µM).
Compound `N=C(N=C(N)N)SCCNc1ccnc2cc(Cl)ccc12` has an IC50 (Plasmodium falciparum [4]) of 3710 nM and an IC50 (Plasmodium falciparum [5]) of 2250 nM.
`COc1ccc(OC)c2c1CC(Nc1ccnc3cc(Cl)ccc13)C2` gave an IC50 (Hemozoin) of 480 nM.
With `Clc1ccc2c(NCCCNc3nc(Nc4ccc(N5CCOCC5)cc4)nc(Nc4ccc(N5CCOCC5)cc4)n3)ccnc2c1` the IC50 (Plasmodium falciparum [7]) was 47.5 µg/mL (≈ 71.2 µM).
For `C[C@H]1[C@H](OC(=O)CCC(=O)Oc2ccc(Nc3ncnc4ccccc34)cc2)O[C@@H]2O[C@@]3(C)CC[C@H]4[C@H](C)CC[C@@H]1[C@@]24OO3`, the EC50 (Plasmodium falciparum [9]) was 3.8 nM.
`C[C@H]1[C@H](OC(=O)CCC(=O)Nc2cccc3ncnc(Nc4ccc(Cl)c(Cl)c4)c23)O[C@@H]2O[C@@]3(C)CC[C@H]4[C@H](C)CC[C@@H]1[C@@]24OO3` was tested, and the EC50 (Plasmodium falciparum [9]) was 1.4 nM.
In the case of `CCCCN1C(=O)c2ccc3c4c(ccc(c24)C1=O)C(=O)C(CCNc1c2ccc(Cl)cc2nc2ccc(OC)cc12)C3=O`, the IC50 (Plasmodium falciparum [8]) is reported as 3.89 nM.
For `COc1ccc2nc3cc(Cl)ccc3c(NCC3C(=O)c4ccc5c6c(ccc(c46)C3=O)C(=O)N(CN(C)C)C5=O)c2c1`, the IC50 (Plasmodium falciparum [8]) was 4.33 nM.
With `CCCCNC(=S)NNC(=O)c1cc(-c2ccc(F)cc2)nc2c(Cl)cc(C(F)(F)F)cc12` the IC50 (Plasmodium falciparum [3]) was 0.28 µg/mL.
`OC(c1cc(C(F)(F)F)nc2c(C(F)(F)F)cccc12)C1CCCCN1` (stereo not given) [MEFLOQUINE] gave an IC50 (Plasmodium falciparum [10]) of 5600 nM and an IC50 (Plasmodium falciparum [11]) of 16500 nM.
For `COc1cc(NC(C)CCCN)c2ncccc2c1` (stereo not given) [PRIMAQUINE], the IC50 (Plasmodium falciparum [1]) was 4300 nM and the IC50 (Plasmodium falciparum [2]) was 1500 nM.
For `CCc1nc(N)nc(N)c1-c1ccc(Cl)cc1` [PYRIMETHAMINE], the IC50 (Plasmodium falciparum [6]) was 0.25 µg/mL (≈ 1.01 µM).
Compound `C=C[C@H]1CN2CC[C@H]1C[C@H]2[C@H](O)c1ccnc2ccc(OC)cc12` [QUININE] has an IC50 (Plasmodium falciparum [3]) of 0.268 µg/mL.
